The target in assay [1] is T1, COX‐1 (Mus musculus, UniProt P22437).
T1 construct: endogenous in cells; host or cells: J774 murine monocyte/macrophage cell line
T1 sequence (P22437 27-602): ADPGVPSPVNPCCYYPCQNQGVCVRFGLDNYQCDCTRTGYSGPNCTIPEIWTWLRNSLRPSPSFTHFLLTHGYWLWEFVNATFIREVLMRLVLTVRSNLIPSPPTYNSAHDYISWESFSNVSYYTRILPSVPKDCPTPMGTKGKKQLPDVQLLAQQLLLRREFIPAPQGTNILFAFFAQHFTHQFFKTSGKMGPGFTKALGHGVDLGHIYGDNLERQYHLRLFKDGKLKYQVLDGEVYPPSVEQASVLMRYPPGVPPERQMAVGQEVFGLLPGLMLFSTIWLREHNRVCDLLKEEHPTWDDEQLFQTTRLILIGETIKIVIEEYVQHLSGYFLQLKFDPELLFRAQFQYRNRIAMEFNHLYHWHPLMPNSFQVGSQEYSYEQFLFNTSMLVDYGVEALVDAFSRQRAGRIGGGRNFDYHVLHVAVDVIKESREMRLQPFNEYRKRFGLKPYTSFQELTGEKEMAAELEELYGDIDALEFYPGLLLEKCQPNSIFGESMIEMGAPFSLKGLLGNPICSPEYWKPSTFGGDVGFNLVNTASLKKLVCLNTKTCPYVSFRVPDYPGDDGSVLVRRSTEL
Nature of the assay: COX‐1 inhibition of PGE2 production, arachidonic acid-stimulated J774 murine macrophage assay. The format is cell-based. The following applies: J774 cells, 15 μM arachidonic acid, PGE2 by EIA, mean of three experiments. As to the method: All tested compounds didn’t inhibit the production of PGE2 via COX‐1 in AA‐stimulated J774 macrophages.
(§1) The cell line was grown in DMEM supplemented with 2 mM glutamine, 25 mM HEPES, 100 units mL^–1 penicillin, 100 μg mL^–1 streptomycin, 10% fetal bovine serum (FBS), and 1.2% sodium pyruvate. Cells were plated in 24‐well culture plates at a density of 2.5 × 10^5 cells mL^–1 and allowed to adhere at 37 °C in 5% CO2 for 2 h. Immediately before the experiments, the culture medium was replaced with fresh medium, and cells were stimulated as previously described.^[ [64] ^] The evaluation of COX‐1 inhibitory activity was achieved by pretreating cells with test compounds (10 μM) for 15 min and then incubating them at 37 °C for 30 min with 15 μM arachidonic acid to activate the constitutive COX. At the end of the incubation, the supernatants were collected to measure PGE2 levels by an enzyme immuno‐assay (EIA). To evaluate COX‐2 activity, cells were stimulated for 24 h with Escherichia coli lipopolysaccharide (LPS, 10 μg mL^–1) to induce COX‐2, in the absence or presence of test compounds (0.001–10 μM). The supernatants were collected for the measurement of PGE2 by means of EIA. Celecoxib was utilized as a reference compound for the selectivity index. Triplicate wells were used for the various treatment conditions in the cell culture assay throughout the experiments. Results are expressed as the mean of three experiments of the % inhibition of PGE2 production by test compounds with respect to control samples. Data fit was obtained using the sigmoidal dose–response equation (variable slope) (GraphPad software). The IC50 values were calculated by the GraphPad Instat program (GraphPad software).

Assay [2] concerns the target T2, COX‐2 (Mus musculus, UniProt Q05769).
T2 construct: endogenous in cells; host or cells: J774 murine monocyte/macrophage cell line, LPS-stimulated
T2 sequence (Q05769 18-604): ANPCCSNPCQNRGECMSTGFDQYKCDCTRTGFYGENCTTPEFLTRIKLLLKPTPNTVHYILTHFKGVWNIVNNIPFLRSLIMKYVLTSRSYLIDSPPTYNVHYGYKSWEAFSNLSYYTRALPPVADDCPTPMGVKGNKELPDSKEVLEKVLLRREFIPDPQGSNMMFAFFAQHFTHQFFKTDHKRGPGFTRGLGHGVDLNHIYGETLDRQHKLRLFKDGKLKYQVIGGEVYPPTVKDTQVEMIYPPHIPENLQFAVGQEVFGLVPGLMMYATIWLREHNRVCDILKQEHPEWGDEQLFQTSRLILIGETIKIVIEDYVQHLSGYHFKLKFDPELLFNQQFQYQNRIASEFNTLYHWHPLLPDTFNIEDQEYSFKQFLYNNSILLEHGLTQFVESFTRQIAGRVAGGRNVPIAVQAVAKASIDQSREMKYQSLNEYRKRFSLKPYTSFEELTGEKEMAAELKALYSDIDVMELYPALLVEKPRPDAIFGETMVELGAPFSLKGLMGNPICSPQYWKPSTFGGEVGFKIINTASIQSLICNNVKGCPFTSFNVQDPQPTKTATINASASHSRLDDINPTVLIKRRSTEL
Nature of the assay: COX‐2 inhibition of PGE2 production, LPS-stimulated J774 murine macrophage assay. Format: cell-based. Particulars: for IC50: J774 cells, LPS 10 μg/mL 24 h, PGE2 by EIA, mean of three experiments; for COX‐1/COX‐2 [SI]: selectivity index IC50(COX‐1)/IC50(COX‐2). On the procedure:
This required that hydrolysis was mandatory to obtain the possible release of bioactive compounds from the macromolecular ester prodrugs. […] All these considerations led us to consider the importance of the possible hydrolysis process, which could lead to release the bioactive compounds from the macromolecular ester prodrug 13a.
as §1

For assay [3], the target named is T1, COX‐1. Particulars: J774 murine macrophage assay, cited from earlier work.
Assay [4] has as its target T2, COX‐2. Particulars: ref [24], cited from earlier work.

Results on six compounds are retold here after paper PMC12711161, “Design, Synthesis, and Biological Characterization of Macromolecular Ester Prodrugs of a Selective Cyclooxygenase‐2 Inhibitor” (Chemmedchem, 2025).

The IC50 is the midpoint of a concentration-inhibition curve.

Like-named read-outs stand apart in the source and are kept apart here.

Regarding `COc1cc(/C=C/C(=O)O)ccc1OCc1cn(CCOCCOCCOCCOCCOCCOCCC(=O)OCCOCCc2cc(-c3ccc(S(C)(=O)=O)cc3)n(-c3ccc(F)cc3)c2C)nn1` [Compound 13b, (E)‐3‐(4‐((1‐(27‐(1‐(4‐Fluorophenyl)‐2‐methyl‐5‐(4‐(methylsulfonyl)phenyl)‐1H‐pyrrol‐3‐yl)‐21‐oxo‐3,6,9,12,15,18,22,25‐octaoxaheptacosyl)‐1H‐1,2,3‐triazol‐4‐yl)methoxy)‐3‐methoxyphenyl)acrylic acid], the IC50 against COX‐1 [1] is over 10 µM. At COX‐2 [2], the IC50 is 0.05 µM and the “COX‐1/COX‐2 [SI]” value is over 200.
Compound `Cc1c(CCOCCOC(=O)CCOCCOCCOCCOCCOCCOCCN=[N+]=[N-])cc(-c2ccc(S(C)(=O)=O)cc2)n1-c1ccc(F)cc1` [Compound 14, 2‐(2‐(1‐(4‐Fluorophenyl)‐2‐methyl‐5‐(4‐(methylsulfonyl)phenyl)‐1H‐pyrrol‐3‐yl)ethoxy)ethyl 1‐azido‐3,6,9,12,15,18‐hexaoxahenicosan‐21‐oate] displayed an IC50 against COX‐1 [1] of over 10 µM. At COX‐2 [2], it took 0.015 µM to reach half-maximal inhibition (IC50) and the “COX‐1/COX‐2 [SI]” value is given as over 666.7.
As for `Cc1c(CCO)cc(-c2ccc(S(C)(=O)=O)cc2)n1-c1ccc(F)cc1` [Compound 21], the IC50 at COX‐1 [3] (ref [24]) was over 10 µM; on COX‐2 [4] (J774 murine macrophage assay) it was 0.07 µM. In addition, the “COX‐1/COX‐2 [SI]” value at COX‐2 [4] (selectivity index IC50(COX‐1)/IC50(COX‐2)) is given as over 142.8.
`Cc1c(CCOCCOCCOCCOCCOCCOCCN=[N+]=[N-])cc(-c2ccc(S(C)(=O)=O)cc2)n1-c1ccc(F)cc1` [Compound 19, 3‐(20‐Azido‐3,6,9,12,15,18‐hexaoxaicosyl)‐1‐(4‐fluorophenyl)‐2‐methyl‐5‐(4‐(methylsulfonyl)phenyl)‐1H‐pyrrole] came in with an IC50 at COX‐1 [1] of over 10 µM. Also, on COX‐2 [2], the IC50 amounted to 0.5 µM and the “COX‐1/COX‐2 [SI]” value is on record as over 20.
Regarding `Cc1c(CCOCCO)cc(-c2ccc(S(C)(=O)=O)cc2)n1-c1ccc(F)cc1` [Compound 7b], on COX‐1 [3] (ref [27]), the IC50 is over 10 µM.
Take `COc1cc(/C=C/C(=O)O)ccc1OCc1cn(CCOCCOCCOCCOCCOCCOCCc2cc(-c3ccc(S(C)(=O)=O)cc3)n(-c3ccc(F)cc3)c2C)nn1` [Compound 12b, (E)‐3‐(4‐((1‐(20‐(1‐(4‐Fluorophenyl)‐2‐methyl‐5‐(4‐(methylsulfonyl)phenyl)‐1H‐pyrrol‐3‐yl)‐3,6,9,12,15,18‐hexaoxaicosyl)‐1H‐1,2,3‐triazol‐4‐yl)methoxy)‐3‐methoxyphenyl)acrylic acid]: the IC50 against COX‐1 [1] and against COX‐2 [2] was over 10 µM each time. Besides, at COX‐2 [2] (LPS‐stimulated macrophages), the “inhibition of PGE2 production via COX‐2 (in words)” value is given as “completely devoid of COX‐2 inhibitory activity”.
